We go through four molecules from patent US20240254179A1, “Targeting Nuclear Speckles and DNA Speckle Association” (THE TRUSTEES OF THE UNIVERSITY OF PENNSYLVANIA, priority 2023, published 2024).

Assay [1] has as its system HeLa cells. The format is cell-based.
Assay [2] has as its system ccRCC. Briefly: ccRCC clinical trial, overall survival by speckle signature, nivolumab versus everolimus. The format is in vivo, human. To be noted: nivolumab arm versus everolimus arm. The text has this: Without wishing to be bound by theory, it is envisioned that having both RNA- and imaging-based methods for measuring speckle phenotypes will assist in the development of cancer- and patient-specific treatment strategies. As a proof-of-concept for a potential use of nuclear speckle phenotyping, a series of studies was undertaken in which speckle signature was correlated with tumor/patient drug response in available data from a human clinical trial and patient-derived mouse xenograft studies.
Thus, contrasting with HIF-2a inhibition, PD1 inhibition may have a greater impact in individuals with Signature II tumors.
Methods for determining speckle signature and TCGA survival analysis. Four-hundred and forty-six protein genes annotated as “Enhanced”, “Supported”, or “Approved” for subcellular localization within nuclear speckles were identified in The Human Protein Atlas and their upper-quartile normalized RNA expression was extracted from the 30 PanCan TCGA projects that had greater than 50 samples. Principal Component Analysis was then performed on these 446 speckle protein genes. In doing so, each speckle protein gene was assigned a weight (called rotation in the analysis) that was used in the analysis to separate tumor sample along the first Principal Component (PC1). The absolute value of a speckle protein gene PC1 weight thus estimates the contribution of each speckle protein gene to patient variation and the PC1 weight sign, positive or negative, reflects genes that have opposite expression patterns to one another. To compare speckle protein gene expression contributions to patient variation between cancer types, the pairwise Pearson's correlation coefficients of the speckle protein PC1 weights were used. In order to obtain a set of speckle protein genes that consistently contributed to patient variation in many cancer types, the rotation signs were flipped so that the speckle protein gene, SON, was always assigned a negative weight. […] Speckle score was then used to separate samples into groups for Kaplan Meier and gene expression analysis between the two groups. With collected ccRCC samples and published drug response studies, speckle scores were calculated using the above formula. In drug-response data (related to FIG. 52), samples with positive speckle scores were considered speckle Signature I and samples with negative speckle scores were considered speckle Signature II. Then differences in drug responses were calculated using a Fisher's exact test (FIG. 53) or Kaplan Meier statistics (FIG. 54).

In assay [3] the test system is patient-derived mouse xenograft tumors. The assay can be described thus: Speckle signature versus PT2399 sensitivity of patient-derived mouse xenograft ccRCC tumors. The format is in vivo.
Method: Methods for determining speckle signature and TCGA survival analysis. Four-hundred and forty-six protein genes annotated as “Enhanced”, “Supported”, or “Approved” for subcellular localization within nuclear speckles were identified in The Human Protein Atlas and their upper-quartile normalized RNA expression was extracted from the 30 PanCan TCGA projects that had greater than 50 samples. Principal Component Analysis was then performed on these 446 speckle protein genes. In doing so, each speckle protein gene was assigned a weight (called rotation in the analysis) that was used in the analysis to separate tumor sample along the first Principal Component (PC1). The absolute value of a speckle protein gene PC1 weight thus estimates the contribution of each speckle protein gene to patient variation and the PC1 weight sign, positive or negative, reflects genes that have opposite expression patterns to one another. To compare speckle protein gene expression contributions to patient variation between cancer types, the pairwise Pearson's correlation coefficients of the speckle protein PC1 weights were used. […] With collected ccRCC samples and published drug response studies, speckle scores were calculated using the above formula. […] Then differences in drug responses were calculated using a Fisher's exact test (FIG. 53) or Kaplan Meier statistics (FIG. 54).

Regarding `[Cl-].[Cl-].[Co+2]` [CoCl2], the “speckle association of the CCND1 gene locus” value in assay [1] is given as “increased speckle association of the CCND1 gene locus”.

On to nivolumab, for which, in assay [2], the “overall survival, Signature I patients” value was “did not differ in overall survival between the two treatment groups” and the “overall survival probability, Signature II patients” value is on record as “higher overall survival probability when treated with nivolumab compared to everolimus”.

Turning to `CO[C@H]1C[C@@H]2CC[C@@H](C)[C@@](O)(O2)C(=O)C(=O)N2CCCC[C@H]2C(=O)O[C@H]([C@H](C)C[C@@H]2CC[C@@H](OCCO)[C@H](OC)C2)CC(=O)[C@H](C)/C=C(\C)[C@@H](O)[C@@H](OC)C(=O)[C@H](C)C[C@H](C)/C=C/C=C/C=C/1C` [everolimus], in assay [2], the “overall survival, Signature I patients” value is given as “did not differ in overall survival between the two treatment groups” and the “overall survival probability, Signature II patients” value is given as “higher overall survival probability when treated with nivolumab compared to everolimus”.

On to `N#Cc1cc(F)cc(Oc2ccc(S(=O)(=O)C(F)F)c3c2CC(F)(F)[C@H]3O)c1` [PT2399], for which the “fraction of Signature II tumors sensitive to PT2399” value in assay [3] (xenograft tumors with negative speckle score (Signature II)) was roughly 30%. The “fraction of Signature I tumors sensitive to PT2399” value in assay [3] (xenograft tumors with positive speckle score (Signature I)) was roughly 75%.
